Results from the supplement of paper PMC8671470.
± gives the standard deviation of the averaged measurements.

Legend:
Details in all cases: 72 h
KG-1 = assay: cell viability (% survival relative to DMSO control, bortezomib = 0%); higher = less cytotoxic
Summary of the method: (§1)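 Seeding density for each of the 10 AML and 5 CML cell lines was titrated to the linear growth range. Cells went into 384-well plates pre-printed in duplicate with compounds at 1, 10, 100, 1000 or 10000 nM and were held for 72 h at 37 °C with 5% CO2. CellTiter-Glo luminescence then provided the readout. Percent survival is expressed relative to vehicle at 100% and a 10 µM positive control at 0%, averaged over duplicates.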

K-562 = assay: as above
Summary of the method: as §1

SHI-1 = assay: as above
Summary of the method: as §1

HEL = assay: as above
Summary of the method: as §1

ML-2 = assay: as above
Summary of the method: as §1

MOLM-13 = assay: as above
Summary of the method: as §1

THP-1 = assay: as above
Summary of the method: as §1

KU-812 = assay: as above
Summary of the method: as §1

Mono-Mac-6 = assay: as above
Summary of the method: as §1

BV-173 = assay: as above
Summary of the method: as §1

HL-60 [1] = assay: as above
Summary of the method: as §1

KCL-22 [2] = assay: as above
Summary of the method: as §1

LAMA-84 = assay: as above
Summary of the method: as §1

MV4-11 = assay: as above
Summary of the method: as §1

NOMO-1 = assay: as above
Summary of the method: as §1

KCL-22 [3] = test system: KCL-22
Summary of the method: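 Fifteen myeloid leukaemia cell lines were seeded in RPMI 1640 at a density titrated to the linear growth range. Each line went into 384-well plates with compounds acoustically pre-printed at five tenfold doses from 1 to 10,000 nM, in duplicate, and was incubated for 72 h at 37 °C with 5% CO2. Luminescent ATP viability was normalised to vehicle and to a positive control at 10 µM. The IC50 came from four-parameter log-logistic dose–response fits.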

HL-60 [4] = assay: cell viability (% survival relative to DMSO control); higher = less cytotoxic
Summary of the method: (§2)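 In 384-well plates, the full library was rescreened in duplicate on HL-60 cells in RPMI 1640 with 10% FBS, at 1–10,000 nM in five tenfold concentrations, for 72 h at 37 °C, 5% CO2. Each run also held DMSO or 100 nM of one of three metabolic inhibitors. Viability was measured by CellTiter-Glo and normalised to DMSO wells and to wells with proteasome inhibitor, present at 10 μM. Any area under the curve comes from four-parameter log-logistic fitting with drc and PharmacoGx.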

HL-60 [5] = assay: area under dose-response curve (viability, 1 nM-10 uM) (fraction (0-1)); higher = more sensitive
Summary of the method: as §2

O=C(O)C(=O)CBr [3-bromopyruvic acid]
Details	area under dose-response curve, co-treatment: AZD3965 100 nM	area under dose-response curve, co-treatment: DMSO vehicle	area under dose-response curve, co-treatment: GSK2194069 100 nM	area under dose-response curve, co-treatment: pictilisib 100 nM	cell viability, 1 nM [%]	cell viability, 10 nM [%]	cell viability, 100 nM [%]	cell viability, 1000 nM [%]	cell viability, 10000 nM [%]
BV-173	–	–	–	–	107	85.9	99	91.7	99.7
HEL	–	–	–	–	90	83.1	92.2	96.2	112
HL-60 [1]	–	–	–	–	89.4	109	103	87.3	167
HL-60 [5]	< 0.0301	< 0.0301	< 0.0301	< 0.0301	–	–	–	–	–
K-562	–	–	–	–	91.3	97.6	92.3	103	106
KCL-22 [2]	–	–	–	–	99.6	75.3	91.7	93.1	106
KG-1	–	–	–	–	94.9	93.3	111	96	106
KU-812	–	–	–	–	88	88.9	99.8	97.6	105
LAMA-84	–	–	–	–	90.8	101	99.5	99.4	98
ML-2	–	–	–	–	91	78.4	102	102	99.4
MOLM-13	–	–	–	–	95	97.4	89.2	93.8	122
MV4-11	–	–	–	–	93.7	94.7	88.4	101	99.8
Mono-Mac-6	–	–	–	–	96.3	93	93.2	105	94.3
NOMO-1	–	–	–	–	93.3	95	101	98.1	98
SHI-1	–	–	–	–	98.8	98.3	117	99.6	110
THP-1	–	–	–	–	106	85	105	93.4	107

Details	IC50 (cell viability) [µM]
KCL-22 [3]	> 10

cell viability [%], HL-60 [4]
Details	0.001 µM	0.01 µM	0.1 µM	1 µM	10 µM
co-treatment: AZD3965 100 nM	99.1 ± 3.7	101 ± 3.3	99.2 ± 2.7	98.3 ± 2.4	95.8 ± 3.9
co-treatment: DMSO vehicle	99.1 ± 2	99.308 ± 0.03	97.7 ± 1.7	99.6 ± 2.4	98 ± 1.7
co-treatment: GSK2194069 100 nM	97.451 ± 0.0089	96.2 ± 15	98.9 ± 3.1	103 ± 4	98.5 ± 5.4
co-treatment: pictilisib 100 nM	112 ± 3.5	93.8 ± 6.9	92.943 ± 0.068	97.2 ± 8.2	96.5 ± 13

CN(C)C(=O)[C@H](O)[C@H](Cc1ccccc1)NC(=O)c1cc2cc(Cl)ccc2[nH]1
Details	area under dose-response curve, co-treatment: AZD3965 100 nM	area under dose-response curve, co-treatment: DMSO vehicle	area under dose-response curve, co-treatment: GSK2194069 100 nM	area under dose-response curve, co-treatment: pictilisib 100 nM	cell viability, 1 nM [%]	cell viability, 10 nM [%]	cell viability, 100 nM [%]	cell viability, 1000 nM [%]	cell viability, 10000 nM [%]
BV-173	–	–	–	–	88.3	110	98.4	105	73.2
HEL	–	–	–	–	98.5	102	99.1	112	88.1
HL-60 [1]	–	–	–	–	85.4	100	108	174	89.1
HL-60 [5]	< 0.0301	< 0.0301	< 0.0301	< 0.0301	–	–	–	–	–
K-562	–	–	–	–	79	84.3	94.3	105	79
KCL-22 [2]	–	–	–	–	107	98.3	108	105	91.6
KG-1	–	–	–	–	102	93.9	95.2	114	80.3
KU-812	–	–	–	–	98.1	96	102	104	62.6
LAMA-84	–	–	–	–	94.6	97.6	114	107	83.3
ML-2	–	–	–	–	110	100	106	120	85
MOLM-13	–	–	–	–	97.6	98.6	101	123	88.1
MV4-11	–	–	–	–	97.9	83.8	98.4	102	68.6
Mono-Mac-6	–	–	–	–	94.8	97.8	103	96.5	83.8
NOMO-1	–	–	–	–	101	102	106	106	95.4
SHI-1	–	–	–	–	106	97.8	115	114	99.6
THP-1	–	–	–	–	96.3	95.8	103	104	91.8

Details	IC50 (cell viability) [µM]
KCL-22 [3]	> 10

cell viability [%], HL-60 [4]
Details	0.001 µM	0.01 µM	0.1 µM	1 µM	10 µM
co-treatment: AZD3965 100 nM	105 ± 5.8	101 ± 3.7	98.4 ± 2.1	101 ± 5.3	100.2 ± 0.61
co-treatment: DMSO vehicle	101 ± 1.7	102.3 ± 0.13	95.7 ± 11	100 ± 3	110 ± 5.4
co-treatment: GSK2194069 100 nM	102 ± 4.8	110 ± 4.8	101 ± 3.4	100 ± 4.2	99.4 ± 8.9
co-treatment: pictilisib 100 nM	97.4 ± 5.6	107 ± 14	93.8 ± 2.3	96 ± 1.2	97.3 ± 7

O=C(O)CCCCC(CCSCc1ccccc1)SCc1ccccc1 (stereo not given) [CPI-613]
Details	area under dose-response curve, co-treatment: AZD3965 100 nM	area under dose-response curve, co-treatment: DMSO vehicle	area under dose-response curve, co-treatment: GSK2194069 100 nM	area under dose-response curve, co-treatment: pictilisib 100 nM	cell viability, 1 nM [%]	cell viability, 10 nM [%]	cell viability, 100 nM [%]	cell viability, 1000 nM [%]	cell viability, 10000 nM [%]
BV-173	–	–	–	–	89	97.3	91.1	94.4	93.8
HEL	–	–	–	–	109	91	106	103	73.8
HL-60 [1]	–	–	–	–	107	111	110	87.9	101
HL-60 [5]	< 0.0301	< 0.0301	< 0.0301	< 0.0301	–	–	–	–	–
K-562	–	–	–	–	94	90.4	102	89.2	107
KCL-22 [2]	–	–	–	–	110	108	105	115	97.2
KG-1	–	–	–	–	92.4	99.7	103	96.5	93.6
KU-812	–	–	–	–	98.9	94.3	99.6	105	89.7
LAMA-84	–	–	–	–	106	98.3	96.5	96.8	97.5
ML-2	–	–	–	–	89.7	94.3	103	98.2	95.8
MOLM-13	–	–	–	–	93.6	99	98.5	75.5	94.5
MV4-11	–	–	–	–	107	90.5	96.6	93	105
Mono-Mac-6	–	–	–	–	92.8	86.9	96.3	94.2	96.3
NOMO-1	–	–	–	–	101	95.2	98.2	100	97.2
SHI-1	–	–	–	–	89.9	110	108	95.8	107
THP-1	–	–	–	–	102	90.1	96.2	93.7	97.3

Details	IC50 (cell viability) [µM]
KCL-22 [3]	> 10

cell viability [%], HL-60 [4]
Details	0.001 µM	0.01 µM	0.1 µM	1 µM	10 µM
co-treatment: AZD3965 100 nM	102 ± 4.3	97.3 ± 4.7	98.6 ± 4.9	104 ± 2.1	105 ± 3.5
co-treatment: DMSO vehicle	98.6 ± 2.1	101 ± 3.1	95.2 ± 9	103 ± 9.6	108 ± 6.2
co-treatment: GSK2194069 100 nM	97.55 ± 0.73	101 ± 2.7	89.4 ± 20	104 ± 11	107.3 ± 0.4
co-treatment: pictilisib 100 nM	105 ± 4.5	98.8 ± 8.4	88.5 ± 24	103 ± 13	107 ± 2.6

O=c1cc(-c2ccccc2)oc2cc(O)c(O)c(O)c12 [Baicalein]
Details	area under dose-response curve, co-treatment: AZD3965 100 nM	area under dose-response curve, co-treatment: DMSO vehicle	area under dose-response curve, co-treatment: GSK2194069 100 nM	area under dose-response curve, co-treatment: pictilisib 100 nM	cell viability, 1 nM [%]	cell viability, 10 nM [%]	cell viability, 100 nM [%]	cell viability, 1000 nM [%]	cell viability, 10000 nM [%]
BV-173	–	–	–	–	100	99.5	96.2	154	64.2
HEL	–	–	–	–	108	88.2	109	137	75.4
HL-60 [1]	–	–	–	–	110	86.7	114	85.3	43
HL-60 [5]	< 0.0301	< 0.0301	< 0.0301	< 0.0301	–	–	–	–	–
K-562	–	–	–	–	104	104	102	108	45.6
KCL-22 [2]	–	–	–	–	95	70.2	113	102	49.3
KG-1	–	–	–	–	96.9	96.7	112	87.8	51
KU-812	–	–	–	–	93.5	94.1	99.4	108	61.4
LAMA-84	–	–	–	–	98.2	99.6	94.4	104	75
ML-2	–	–	–	–	98.9	93.2	87.5	97.9	37.7
MOLM-13	–	–	–	–	97.4	72	132	92.1	69.3
MV4-11	–	–	–	–	97.8	102	98.7	113	54
Mono-Mac-6	–	–	–	–	103	102	99.2	117	75.4
NOMO-1	–	–	–	–	99.2	91.3	104	123	98.2
SHI-1	–	–	–	–	109	92	126	97.2	82.8
THP-1	–	–	–	–	99.4	95.6	93.5	92.5	85.9

Details	IC50 (cell viability) [µM]
KCL-22 [3]	> 10

cell viability [%], HL-60 [4]
Details	0.001 µM	0.01 µM	0.1 µM	1 µM	10 µM
co-treatment: AZD3965 100 nM	99.72 ± 0.59	100 ± 5.5	103 ± 4.9	97.6 ± 1.2	101.4 ± 0.93
co-treatment: DMSO vehicle	102.7 ± 0.15	102 ± 1.9	101 ± 4.4	98.895 ± 0.092	102 ± 7.6
co-treatment: GSK2194069 100 nM	97.26 ± 0.92	102 ± 2.2	93.5 ± 4.6	98.1 ± 5.9	99.8 ± 4
co-treatment: pictilisib 100 nM	99.21 ± 0.82	106 ± 2.4	98.9 ± 2.1	106 ± 1.5	89.5 ± 7.1
